Experimental data taken from ChEMBL document CHEMBL1149656, “Respiratory syncytial virus fusion inhibitors. Part 6: an examination of the effect of structural variation of the benzimidazol-2-one heterocycle moiety” (Bioorg Med Chem Lett, 2007).

What was measured:
[1] = system: Respiratory syncytial virus; assay: Antiviral activity against RSV Long in Hep2 cells; assay type: functional, organism-based; conditions: human respiratory syncytial virus, HEp-2
[2] = Cytotoxicity against human Hep2 cells; assay type: cell-based, HEp-2
[3] = system: Respiratory syncytial virus; assay: Antiviral activity against RSV Long with F1 protein K349R mutation in Hep2 cells; assay type: functional, organism-based; conditions: hep-2
[4] = Metabolic stability in human liver microsomes; assay type: ADME, Microsome
[5] = system: Respiratory syncytial virus; assay: Reduction of viral RNA in lungs of RSV-infected BALB/c mouse at 50 mg/kg by RT-PCR method; assay type: functional, Lung

Row | Compound | EC50 [1] [nM] | CC50 [2] [µM] | EC50 [3] [nM] | half-life [4] [min] | log10 TCID50 [5]
1 | CC(C)CCn1c(Cn2c(=O)n(C3CC3)c(=O)c3ccccc32)nc2cc(C(=O)O)ccc21 | > 68700 | 102 |  |  | 
2 | CC(C)CCn1c(CN2C(=O)N(CC(=O)OC(C)(C)C)S(=O)(=O)c3ccccc32)nc2ccccc21 | 83 | 18.4 |  |  | 
3 | N#CCCCn1c(Cn2c(=O)oc3ccccc32)nc2ccccc21 | 2510 | > 300 |  |  | 
4 | O=C1N(Cc2nc3ccccc3n2CCCCF)c2ccccc2S(=O)(=O)N1C1CC1 | 432 | 111 |  |  | 
5 | COc1cc(=O)n(Cc2nc3cc(CN)ccc3n2CCCCO)c2ccccc12 | 8 | 81.5 | > 500 |  | 
6 | CC(C)CCn1c(Cn2c(=O)n(CC(=O)O)c(=O)c3ccccc32)nc2ccccc21 | 1020 | > 221 |  |  | 
7 | CC(C)CCn1c(CN2C(=O)C(Cc3ccccc3)C(=O)c3ccccc32)nc2ccccc21 (centres undefined) | 1810 | 20.1 |  |  | 
8 | N#CCCCn1c(CN2C(=O)N(C3CC3)S(=O)(=O)c3ccccc32)nc2ccccc21 | 55 | > 244 |  |  | 
9 | COc1cc(=O)n(Cc2nc3ccccc3n2CCCCF)c2ccccc12 | 211 | 59.5 |  |  | 
10 | CN1C(=O)N(Cc2nc3ccccc3n2CCCS(C)(=O)=O)c2ccccc2S1(=O)=O | 5730 | 34.5 |  |  | 
11 | CC(C)CCn1c(CN2C(=O)C(CC(=O)N(C)C)c3ccccc32)nc2ccccc21 (centres undefined) | 205 | 4.67 |  |  | 
12 | CC(C)CCn1c(Cn2c(=O)n(Cc3ccc(C(=O)O)cc3)c(=O)c3ccccc32)nc2ccccc21 | 9 | 19.3 |  |  | 
13 | O=c1ccc2ccccc2n1Cc1nc2ccccc2n1CCCCF | 2300 | 103 |  |  | 
14 | O=c1c(O)cc2ccccc2n1Cc1nc2ccccc2n1CCCCF | > 274000 | 20.2 |  |  | 
15 | CC1(C)Sc2ccccc2N(Cc2nc3ccccc3n2CCCCF)C1=O | > 252000 | 32.6 |  |  | 
16 | CCOC(=O)c1c(OC)c(=O)n(Cc2nc3ccccc3n2CCCCF)c2ccccc12 | 147 | 61.6 |  |  | 
17 | CS(=O)(=O)CCCn1c(Cn2c(=O)n(CC(F)(F)F)c(=O)c3ccccc32)nc2cc(CN)ccc21 | 21 | > 123 | 500 |  | 
18 | CC(C)CCn1c(CN2C(=O)CSc3ccccc32)nc2ccccc21 | 274 | 6.78 |  |  | 
19 | CN(C)CCn1c(CN2C(=O)CCc3ccccc32)nc2ccccc21 | 456 | 153 |  |  | 
20 | Cn1c(=O)c2ccccc2n(Cc2nc3ccccc3n2CCCCF)c1=O | 36 | > 25.9 |  |  | 
21 | NCc1ccc2c(c1)nc(Cn1c(=O)n(C3CC3)c(=O)c3ccccc31)n2CCCCF | 9 | 40.6 | > 500 | > 100 | 1.4

Row | Compound | EC50 [1] [nM] | CC50 [2] [µM] | EC50 [3] [nM] | half-life [4] [min] | log10 TCID50 [5]
22 | CC(C)CCn1c(Cn2c(=O)n(C3CC3)c(=O)c3ccccc32)nc2cc(CO)ccc21 | 314 | 62.1 |  |  | 
23 | N#CCCCn1c(Cn2c(=O)n(C3CC3)c(=O)c3ccccc32)nc2ccccc21 | 171 | 9.05 | > 500 |  | 
24 | COC(=O)c1ccc(Cn2c(=O)c3ccccc3n(Cc3nc4ccccc4n3CCn3cnnn3)c2=O)cc1 | 170 | 25.3 |  |  | 
25 | CC(C)CCn1c(CN2C(=O)C(CC(=O)NCc3ccccc3)c3ccccc32)nc2ccccc21 (centres undefined) | 110 | 0.72 |  |  | 
26 | CC(C)CCn1c(CN2C(=O)C(CC(=O)O)c3ccccc32)nc2ccccc21 (centres undefined) | 705 | 16.5 |  |  | 
27 | O=C(O)c1ccc(Cn2c(=O)c3ccccc3n(Cc3nc4ccccc4n3CCn3cnnn3)c2=O)cc1 | 550 | 54.7 |  |  | 
28 | CCOC(=O)Cn1c(=O)c2ccccc2n(Cc2nc3ccccc3n2CCn2cnnn2)c1=O | 288 | 8.06 |  |  | 
29 | O=C1CSc2ccccc2N1Cc1nc2ccccc2n1CCCCF | 1020 | > 96.4 |  |  | 
30 | CC(C)CCn1c(CN2C(=O)C(C)(O)c3ccccc32)nc2ccccc21 (centres undefined) | 97 | 101 |  |  | 
31 | CN1C(=O)N(Cc2nc3ccccc3n2CCCCF)c2ccccc2S1(=O)=O | 37 | 87.7 |  |  | 
32 | CC(C)CCn1c(Cn2c(=O)n(C3CC3)c(=O)c3ccccc32)nc2cc(CN)ccc21 | 11 | 8.58 |  |  | 
33 | CC(C)CCn1c(CN2C(=O)N(CC(=O)O)S(=O)(=O)c3ccccc32)nc2ccccc21 | 263 | 60.2 |  |  | 
34 | O=C(O)Cn1c(=O)c2ccccc2n(Cc2nc3ccccc3n2CCn2cnnn2)c1=O | 5240 | 213 |  |  | 
35 | CC(C)CCn1c(CN2C(=O)N(C3CC3)S(=O)(=O)c3ccccc32)nc2cc(CN)ccc21 | 3 | 7.03 | 20 |  | 
36 | CC(C)CCn1c(CN2C(=O)C(=O)c3ccccc32)nc2ccccc21 | 230 | 69.8 |  |  | 
37 | COC(=O)c1ccc2c(c1)nc(Cn1c(=O)n(C3CC3)c(=O)c3ccccc31)n2CCC(C)C | > 217000 | 0.23 |  |  | 
38 | COc1cc(=O)n(Cc2nc3cc(CN)ccc3n2CCCCF)c2ccccc12 | 9 | 24.1 | > 5000 |  | 
39 | CC(C)CCn1c(CN2C(=O)C(CC(=O)NCCc3ccccc3)c3ccccc32)nc2ccccc21 (centres undefined) | 379 | 0.94 |  |  | 
40 | CC1(C)C(=O)N(Cc2nc3ccccc3n2CCCC#N)c2ccccc21 | 19 | > 100 |  |  | 
41 | N#CCCCCn1c(CN2C(=O)CCc3ccccc32)nc2ccccc21 | 1110 | 27.1 |  |  | 
42 | O=c1c(Br)cc2ccccc2n1Cc1nc2ccccc2n1CCCCF | 788 | 26.2 |  |  | 

Row | Compound | EC50 [1] [nM] | CC50 [2] [µM] | EC50 [3] [nM] | half-life [4] [min] | log10 TCID50 [5]
43 | CC(C)CCn1c(CN2C(=O)Cc3ccccc32)nc2ccccc21 | 32 | 8.58 |  |  | 
44 | NCc1ccc2c(c1)nc(Cn1c(=O)n(CC(F)(F)F)c(=O)c3ccccc31)n2CCCCF | 8 | 11.8 | > 500 | > 100 | 1.6
45 | O=c1c2ccccc2n(Cc2nc3ccccc3n2CCCCF)c(=O)n1C1CC1 | 50 | 38.1 |  |  | 
46 | O=c1c2ccccc2n(Cc2nc3ccccc3n2CCCCO)c(=O)n1C1CC1 | 25 | 42.6 |  |  | 
47 | CC(C)CCn1c(CN2C(=O)C(O)c3ccccc32)nc2ccccc21 (centres undefined) | 164 | 3.31 |  |  | 
48 | CCCCNCc1ccc2c(c1)nc(Cn1c(=O)n(C3CC3)c(=O)c3ccccc31)n2CCC(C)C | > 191000 | 4.15 |  |  | 
49 | COC(=O)c1ccc(Cn2c(=O)c3ccccc3n(Cc3nc4ccccc4n3CCC(C)C)c2=O)cc1 | 260 | 11.2 |  |  | 
50 | CC(C)CCn1c(CN2C(=O)CS(=O)(=O)c3ccccc32)nc2ccccc21 | 59 | 63 |  |  | 
51 | CCc1cc2ccccc2n(Cc2nc3ccccc3n2CCCCF)c1=O | 902 | 85.1 |  |  | 
52 | CC1(C)C(=O)N(Cc2nc3ccccc3n2CCCCF)c2ccccc2S1(=O)=O | 7670 | 158 |  |  | 
53 | O=C(O)c1c(O)c(=O)n(Cc2nc3ccccc3n2CCCCF)c2ccccc12 | 25900 | > 38.6 |  |  | 
54 | CCOC(=O)Cn1c(=O)c2ccccc2n(Cc2nc3ccccc3n2CCC(C)C)c1=O | 1860 | 16.6 |  |  | 
55 | O=C1CS(=O)(=O)c2ccccc2N1Cc1nc2ccccc2n1CCCCF | 229 | 211 |  |  | 
56 | CN1C(=O)N(Cc2nc3ccccc3n2CCCCO)c2ccccc2S1(=O)=O | 19 | 219 |  |  | 
57 | CC(C)CCn1c(Cn2c(=O)oc3ccccc32)nc2ccccc21 | 44 | 30.7 |  |  | 
58 | CNCc1ccc2c(c1)nc(Cn1c(=O)n(C3CC3)c(=O)c3ccccc31)n2CCC(C)C | 788 | 17.9 |  |  | 
59 | Cn1c(=O)c2ccccc2n(Cc2nc3ccccc3n2CCCCO)c1=O | 82 | 48.6 |  |  | 
60 | NCc1ccc2c(c1)nc(Cn1c(=O)n(CC(F)(F)F)c(=O)c3ccccc31)n2CCCCO | 8 | 52.7 | > 500 |  | 
61 | NCc1ccc2c(c1)nc(Cn1c(=O)n(C3CC3)c(=O)c3ccccc31)n2CCCCO | 18 | > 181 | > 500 | > 100 | 0.45
62 | N#CCCCCn1c(CN2C(=O)CS(=O)(=O)c3ccccc32)nc2ccccc21 | 1340 | > 270 |  |  | 
